Each structure is given as a SMILES string.

The subject of assay [1] is FM1 r(CUG)10 (FM1 CUG × 10, r10FAM), annealed (RNA, repeat, fluorescein (fam) covalently incorporated between C13 and U14 (5th CUG repeat, hairpin loop)) CUGCUGCUGCUGCUGCUGCUGCUGCUGCUG
Briefly: fluorescence melting of internal FAM. The note with it: none stated; nuclease-free water; 200 nM RNA; L/M = 1; Tm 52.2 to 54.9 °C; lower Tm at L/M > 1.

Assay [2] has the same test system. Briefly: fluorometer fluorescence titration, sigmoidal fit. To be noted: none stated; nuclease-free water, 25 °C; 200 nM RNA; apparent; Langmuir fit 671 nM, quadratic fit 247 nM.
In assay [3] the test system is native r(CUG)7 (r7) (RNA, repeat) CUGCUGCUGCUGCUGCUGCUG
Briefly: UV melting, 260 nm. To be noted: 100 mM NaCl; 10 mM sodium phosphate, pH 7.0; 1.5 µM RNA; L/M = 1; Tm 59.8 to 64.0 °C.

The subject of assay [4] is native r(CUG)10 (r10) (RNA, repeat) CUGCUGCUGCUGCUGCUGCUGCUGCUGCUG
Kind of assay: UV melting, 260 nm. To be noted: 100 mM NaCl, 10 mM sodium phosphate, pH 7.0, 1.5 µM RNA, L/M = 1, Tm 55.8 to 57.4 °C buffer, Tm 57.5 (L/M 0), 58.7 (L/M 1), 60.7 °C (L/M 16).

Assay [5] concerns FM1 r(CUG)10 (FM1 CUG × 10, r10FAM), annealed (RNA, repeat, fluorescein (fam) covalently incorporated between C13 and U14 (5th CUG repeat, hairpin loop)) CUGCUGCUGCUGCUGCUGCUGCUGCUGCUG
Kind of assay: UV melting, 260 nm. The note with it: 100 mM NaCl; 10 mM sodium phosphate, pH 7.0; 1.5 µM RNA; L/M = 1; Tm 55.8 to 57.4 °C.

The test system is the same in assay [6]. Briefly: fluorescence microplate titration, sigmoidal fit. The note with it: none stated; nuclease-free water, room temperature; 200 nM RNA; apparent.

For `CN[C@@H]1[C@@H](O)[C@@H](O[C@@H]2[C@@H](O)[C@H](O[C@H]3OC(CN)=CC[C@H]3N)[C@@H](N)C[C@H]2N)OC[C@]1(C)O`, the results for the ΔTm in assay [1], in assay [3] and in assay [5] were 2.7 °C, 4 °C and ~ 1.5 °C, respectively. The Kd is recorded as 945 nM in assay [2] and 928 nM in assay [6]. In assay [4], the binding result is on record as “yes”.
In the case of `NC[C@@H]1O[C@H](O[C@H]2[C@@H](O)[C@H](O[C@@H]3[C@@H](O)[C@H](N)C[C@H](N)[C@H]3O[C@H]3O[C@H](CN)[C@@H](O)[C@H](O)[C@H]3N)O[C@@H]2CO)[C@H](N)[C@@H](O)[C@@H]1O`, the Kd in assay [6] was determined as 1054 nM.
Turning to `NC[C@H]1O[C@H](O[C@H]2[C@H](O)[C@@H](O[C@H]3O[C@H](CO)[C@@H](O)[C@H](N)[C@H]3O)[C@H](N)C[C@@H]2N)[C@H](O)[C@@H](O)[C@@H]1O`, the Kd in assay [6] was determined as 1555 nM.

In general, ΔTm refers to the change in melting temperature against a reference sample.

The record behind these values is paper PMC8955525 (2022).
